Measured values published in patent US20040241310A1, “Method of producing antibodies ex-vivo” (priority 2001, published 2004).

System: White Leghorn chickens
Assay type: in vivo
Settings: oral gavage, 100 μg human IgG together with the adjuvant, two hens per group

Compound	titers (antibodies in egg yolk)
CCCCCCCCCCCCCCCCCC[N+](C)(C)CCCCCCCCCCCCCCCCCC.[Br-] [DDA, Dimethyl dioctadecyl ammonium bromide]	no or very low titers
CTB	One of four chickens in the CTB-group showed high titers
